Data published in patent publication US20240051931A1, “HDAC INHIBITORS” (University of Pittsburgh - Of the Commonwealth System of …, priority 2020, published 2024).

Compound | melting point
O=C(NO)C1CCc2cc(C#CCOC(=O)N3CCc4ccccc4C3)ccc2O1 (stereo not drawn) [Compound 36, 3-(2-(Hydroxycarbamoyl)chroman-6-yl)prop-2-yn-1-yl 3,4-dihydroisoquinoline-2(1H)-carboxylate] | 90 to 92 °C
O=C(NO)[C@@H]1CCc2ccc(-c3ccc(F)c(Cl)c3)cc2O1 [(S)-58d, (S)-7-(3-Chloro-4-fluorophenyl)-N-hydroxychromane-2-carboxamide] | 173 to 174 °C
O=C(NO)C1CCc2cc(CCCOc3ccc(F)cc3)ccc2O1 (stereo not drawn) [Compound 31, 6-(3-(4-Fluorophenoxy)propyl)-N-hydroxychromane-2-carboxamide] | 145 to 147 °C
O=C(NO)[C@@H]1CCc2ccc(-c3ccc(Cl)c(Cl)c3)cc2O1 [(S)-58e, (S)-7-(3,4-Dichlorophenyl)-N-hydroxychromane-2-carboxamide] | 134 to 136 °C
O=C(Nc1cccc2c1O[C@H](C(=O)NO)CC2)OCc1ccccc1Cl [−11L, 2-Chlorobenzyl (S)-(2-(hydroxycarbamoyl)chroman-8-yl)carbamate] | 176 to 178 °C
C#Cc1ccc2c(c1)CCC(C(=O)NO)O2 (stereo not drawn) [Compound 19, 6-ethynyl-N-hydroxychromane-2-carboxamide] | 161 to 163 °C
O=C(NO)C1CCc2ccc(O)cc2O1 (stereo not drawn) [Compound 55, N,7-Dihydroxychromane-2-carboxamide] | 174 to 176 °C
C[C@@H]1Cc2ccccc2O[C@@H]1C(=O)NO (relative stereo) [Compound 73, (rel)-(2S,3R)—N-Hydroxy-3-methylchromane-2-carboxamide] | 156 to 160 °C
Cl.O=C(CN1CCC2(CCc3cc(F)ccc3O2)CC1)NO | 200 to 203 °C
CC(C)NC(=O)ONC(=O)C1CCc2cc(NC(=O)c3ccc(-c4ccccc4)cc3)ccc2O1 (stereo not drawn) [Compound 15, 6-([1,1′-Biphenyl]-4-carboxamido)-N-((isopropylcarbamoyl)oxy)chromane-2-carboxamide] | 200 °C (dec.)
O=C(Nc1cccc2c1O[C@@H](C(=O)NO)CC2)OCc1ccccc1Cl [+11L, 2-Chlorobenzyl (R)-(2-(hydroxycarbamoyl)chroman-8-yl)carbamate] | 173 to 175 °C
CO[C@@H]1C[C@@H](C(=O)NO)Oc2ccccc21 (relative stereo) [Compound 85, (rel)-(2S,4R)—N-Hydroxy-4-methoxychromane-2-carboxamide] | 102 to 104 °C
O=C(NO)C1CCc2cc(CCCOC(=O)N3CCc4ccccc4C3)ccc2O1 (stereo not drawn) [Compound 40, 3-(2-(Hydroxycarbamoyl)chroman-6-yl)propyl 3,4-dihydroisoquinoline-2(1H)-carboxylate] | 82 to 84 °C
O=C(NO)C1CCc2cc(Cl)ccc2O1 (stereo not drawn) [Compound 90, 6-Chloro-N-hydroxychromane-2-carboxamide] | 160 to 162 °C

Other lines, results leading:

melting point | Compound
231 to 232 °C | O=C(Nc1ccc(F)cc1)Nc1cccc2c1OC(C(=O)NO)CC2 (stereo not drawn) [Compound 11c, 8-(3-(4-Fluorophenyl)ureido)-N-hydroxychromane-2-carboxamide]
71 to 73 °C | COc1cccc(COC(=O)Nc2cccc3c2O[C@H](C(=O)NO)CC3)c1 [Compound 11g, 3-methoxybenzyl (S)-(2-(hydroxycarbamoyl)chroman-8-yl)carbamate]
237 to 239 °C | O=C(NO)C1CCc2cccc(NS(=O)(=O)c3ccc(F)cc3)c2O1 (stereo not drawn) [Compound 11m, 8-((4-Fluorophenyl)sulfonamido)-N-hydroxychromane-2-carboxamide]
187 to 190 °C | O=C(NCc1ccccc1)Nc1cccc2c1OC(C(=O)NO)CC2 (stereo not drawn) [Compound 11e, 8-(3-Benzylureido)-N-hydroxychromane-2-carboxamide]
218 to 219 °C | O=C(NO)C1CCc2cc(-c3ccc(-c4ccccc4)cc3)ccc2O1 (stereo not drawn) [Compound 44a, 6-([1,1′-Biphenyl]-4-yl)-N-hydroxychromane-2-carboxamide]
144 to 147 °C | O=C(NO)C1CCc2ccc(OCCOc3ccc(F)cc3)cc2O1 (stereo not drawn) [Compound 50b, 7-(2-(4-Fluorophenoxy)ethoxy)-N-hydroxychromane-2-carboxamide]
235 to 237 °C | Cc1ccc(S(=O)(=O)Nc2cccc3c2OC(C(=O)NO)CC3)cc1 (stereo not drawn) [Compound 11p, N-Hydroxy-8-((4-methylphenyl)sulfonamido)chromane-2-carboxamide]
219 to 221 °C | O=C(NO)C1CCc2cccc(NS(=O)(=O)c3cccc4ccccc34)c2O1 (stereo not drawn) [Compound 11n, N-Hydroxy-8-(naphthalene-1-sulfonamido)chromane-2-carboxamide]
156 to 170 °C | O=C(NO)C1CCc2cc(NS(=O)(=O)c3cc(Cl)cc(Cl)c3)ccc2O1 (stereo not drawn) [Compound 14n, 6-((3,5-Dichlorophenyl)sulfonamido)-N-hydroxychromane-2-carboxamide]
125 to 128 °C | O=C(NO)C1CCc2ccc(OCc3ccccn3)cc2O1 (stereo not drawn) [Compound 50c, N-Hydroxy-7-(pyridin-2-ylmethoxy)chromane-2-carboxamide]
89 to 91 °C | O=C(NO)C1CCc2cc(-c3ccc(Cl)c(Cl)c3)ccc2O1 (stereo not drawn) [Compound 44c, 6-(3,4-Dichlorophenyl)-N-hydroxychromane-2-carboxamide]
155 to 157 °C | O=C(Nc1cccc2c1O[C@H](C(=O)NO)CC2)OCc1ccc(Cl)cc1 [Compound 11h, 4-Chlorobenzyl (S)-(2-(hydroxycarbamoyl)chroman-8-yl)carbamate]
181 to 183 °C | COc1ccc(-c2ccc3c(c2)OC(C(=O)NO)CC3)cc1 (stereo not drawn) [Compound 58c, N-Hydroxy-7-(4-methoxyphenyl)chromane-2-carboxamide]
167 to 169 °C | O=C(NO)C1CCc2ccc(-c3ccc(Cl)c(Cl)c3)cc2O1 (stereo not drawn) [Compound 58a, 7-(3,4-Dichlorophenyl)-N-hydroxychromane-2-carboxamide]
188 to 189 °C | O=C(Nc1ccc2c(c1)CCC(C(=O)NO)O2)OCc1ccccc1Cl (stereo not drawn) [Compound 14k, 2-Chlorobenzyl (2-(hydroxycarbamoyl)chroman-6-yl)carbamate]
182 to 188 °C | O=C(Nc1cccc2c1OC(C(=O)NO)CC2)OCc1ccccc1Cl (racemic) [Compound 11L, 2-Chlorobenzyl (2-(hydroxycarbamoyl)chroman-8-yl)carbamate]
181 to 183 °C | CS(=O)(=O)Nc1cccc2c1OC(C(=O)NO)CC2 (stereo not drawn) [Compound 11o, N-Hydroxy-8-(methylsulfonamido)chromane-2-carboxamide]
214 to 216 °C | O=C(Nc1ccc2c(c1)CCC(C(=O)NO)O2)c1ccc(S(F)(F)(F)(F)F)cc1 (stereo not drawn) [Compound 14c, N-Hydroxy-6-(4-(pentafluoro-λ^6-sulfaneyl)benzamido)chromane-2-carboxamide]
148 to 151 °C | O=C(NO)C1CCc2ccc(OCc3ccc(C(F)(F)F)cc3)cc2O1 (stereo not drawn) [Compound 50a, N-Hydroxy-7-((4-(trifluoromethyl)benzyl)oxy)chromane-2-carboxamide]
